From article PMC12171880, “Selectivity and Safety Characterization of a Xanthine–Imidazothiazole Lead Structure: a Novel Tryptophan Hydroxylase Inhibitor of Peripheral Serotonin Synthesis” (ACS Pharmacology & Translational Science, 2025)

Assays:
human recombinant TPH1 = biological target: T1, human recombinant TPH1 (Homo sapiens, UniProt P17752); test: TPH1 enzymatic activity assay (fluorescence, 96-well); type: biochemical
T1 construct: Full-length human TPH1 and TPH2 (UniProt entries P17752 and Q8IWU9); MBP (N); made in house
T1 sequence (P17752 1-444): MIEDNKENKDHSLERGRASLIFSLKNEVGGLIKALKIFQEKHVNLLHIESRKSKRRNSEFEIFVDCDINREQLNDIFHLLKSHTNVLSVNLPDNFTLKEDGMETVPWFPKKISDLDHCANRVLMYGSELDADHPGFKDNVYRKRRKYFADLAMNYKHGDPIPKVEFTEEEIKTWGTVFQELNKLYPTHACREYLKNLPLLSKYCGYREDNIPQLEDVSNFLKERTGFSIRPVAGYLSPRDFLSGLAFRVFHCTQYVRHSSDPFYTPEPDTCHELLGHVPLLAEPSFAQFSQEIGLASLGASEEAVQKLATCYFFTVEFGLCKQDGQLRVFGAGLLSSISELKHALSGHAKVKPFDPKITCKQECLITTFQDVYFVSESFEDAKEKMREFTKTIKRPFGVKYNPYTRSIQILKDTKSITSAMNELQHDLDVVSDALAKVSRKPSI

Sprague–Dawley rats = test: Dose-range finding study in rats, histopathology; type: in vivo, rat
Experimental: Blood samples were collected as described below. The animal sacrifice (exsanguination) was performed on day 8. During the necropsy, the selected organs were collected, weighed, and shipped to a third-party laboratory for histopathological examination (as described below).
The histological evaluation was performed by AnaPath Services GmbH (Liestal, Switzerland). The samples from the organs–liver, kidney, lung, heart, brain, femur, and ovary–were fixed in 4% neutral-buffered formaldehyde. The testes were fixed by using the Davidson solution. All tissues were trimmed, processed, and embedded in paraffin wax. Samples from the femur were processed and embedded in paraffin after decalcification. Blocks were cut at an approximate thickness of 2–4 μm and stained with hematoxylin and eosin (HE) according to AnaPath Services GmbH SOP’s. The slides were checked under the microscope for a quality check before examination under a light microscope by the study pathologist.

[1] = test system: 97 targets (receptors, enzymes, and ion channels); test: Eurofins Diversity Panel, 97 binding, enzyme and uptake assays; conditions: 10 μM
Experimental: TPT-004 was evaluated at a concentration of 10 μM in a total of 97 binding, enzyme, and uptake assays (Diversity Panel) by Eurofins Cerep (Celle l’Evescault, France). Compound binding was calculated as % inhibition of the binding of a ligand specific to each target. The compound enzyme inhibition effect was calculated as percentage inhibition of the control enzyme activity. Results showing an inhibition (or stimulation for assays run under basal conditions) of >50% are considered to represent significant effects of the test compounds. Results showing an inhibition (or stimulation) between 25% and 50% are indicative of weak to moderate effects. Results showing an inhibition (or stimulation) lower than 25% are not considered significant and are mostly attributable to variability in the signal around the control level. […] In each experiment, and if applicable, the respective reference compound was tested concurrently with TPT-004, and the data were compared with historical values determined at Eurofins. […]
The results are expressed as a percent of control-specific binding: measured specific binding/control specific binding×100 and as a percent inhibition of control-specific binding: 100−(measured specific binding/control specific binding×100) obtained in the presence of TPT-004. […]

For `CCn1c(=O)[nH]c(=O)c2c1nc(Cc1cn3cc(C)sc3n1)n2CC1COC1` [TPT-004], the “Mean TPH1 activity [%]” value (human recombinant TPH1; 3 nM) was 99.51%, the IC50 (human recombinant TPH1; 3 nM to 10 μM, 15 μM L-Trp, 20 μM BH4) was 33.4 nM and the “Mean TPH1 activity [%]” value (human recombinant TPH1; 10 nM) was 77.11%. For the same compound, the “Mean TPH1 activity [%]” value (human recombinant TPH1; 30 nM) was 52.25%, the “Mean TPH1 activity [%]” value (human recombinant TPH1; 100 nM) was 21.29% and the “Mean TPH1 activity [%]” value (human recombinant TPH1; 300 nM) was 7.59%. The “Mean TPH1 activity [%]” value (human recombinant TPH1; 1 μM) was 3.62%, the “Mean TPH1 activity [%]” value (human recombinant TPH1; 3 μM) was 3.64% and the “Mean TPH1 activity [%]” value (human recombinant TPH1; 10 μM) was 3.21%. For the same compound, the “fold higher TPH1 inhibitory potency (lower IC50) compared to LP778902” value (human recombinant TPH1; 33.38 vs […]) was about 18, the IC50 (human recombinant TPH1; supplementary CSV) was 33 nM and the “histopathological findings in heart, spleen, kidney, lung, brain, femur, testis, or ovary” value (Sprague–Dawley rats; 45 and 200 mg/kg BID) was “no test-related findings”. For the same compound, the “histopathological finding in the liver” value (Sprague–Dawley rats; only at doses ≥45 mg/kg BID) was “multifocal, minimal centrilobular hypertrophy” and the “significant effects (more than 50% inhibition or stimulation) among 97 targets” value [1] was “a significant effect was observed only for the rat homolog of TH”.
